From BindingDB's records for doi:10.1016/j.ejmech.2019.05.027 (Central University of Punjab, 2019) come the findings set out here.

Data set [1] has as its target T1, ATP-dependent translocase ABCB1 (Homo sapiens, UniProt P08183). The data set is described as follows: Inhibition of P-gp in human NCI-H460/R cells assessed as potentiation of doxorubicin-induced cytotoxicity by measuring reduction in doxorubicin IC50 at 0.1 to 2.5 uM incubated for 72 hrs by MTT assay. For orientation: Tetrazolium assays rely on reduction of a dye to a coloured formazan, in cell work by metabolically active cells.

The target in data set [2] is T1, ATP-dependent translocase ABCB1. Description: Inhibition of P-gp in human Caco2 cells assessed as potentiation of doxorubicin-induced cytotoxicity by measuring reduction in doxorubicin IC50 at 2.2 uM incubated for 24 hrs by MTT assay.
The target is the same in data set [3]. The data set is described as follows: Inhibition of P-gp in HEK293/ABCB1 cells assessed as potentiation of doxorubicin-induced cytotoxicity by measuring doxorubicin IC50 at 1 uM incubated for 48 hrs by MTT assay (Rvb = 8.08 uM).
Data set [4] in a line: Inhibition of P-gp in HEK293/ABCB1 cells assessed as potentiation of cisplatin-induced cytotoxicity by measuring cisplatin IC50 at 2 uM incubated for 48 hrs by MTT assay (Rvb = 8.08 uM).

pIC50: −log10 of the molar value. Residues, ends and D or L forms follow the SMILES beside them.

For orientation: pIC50 means the negative decadic logarithm of the IC50, by convention in mol/L.

T1 sequence (P08183 whole entry): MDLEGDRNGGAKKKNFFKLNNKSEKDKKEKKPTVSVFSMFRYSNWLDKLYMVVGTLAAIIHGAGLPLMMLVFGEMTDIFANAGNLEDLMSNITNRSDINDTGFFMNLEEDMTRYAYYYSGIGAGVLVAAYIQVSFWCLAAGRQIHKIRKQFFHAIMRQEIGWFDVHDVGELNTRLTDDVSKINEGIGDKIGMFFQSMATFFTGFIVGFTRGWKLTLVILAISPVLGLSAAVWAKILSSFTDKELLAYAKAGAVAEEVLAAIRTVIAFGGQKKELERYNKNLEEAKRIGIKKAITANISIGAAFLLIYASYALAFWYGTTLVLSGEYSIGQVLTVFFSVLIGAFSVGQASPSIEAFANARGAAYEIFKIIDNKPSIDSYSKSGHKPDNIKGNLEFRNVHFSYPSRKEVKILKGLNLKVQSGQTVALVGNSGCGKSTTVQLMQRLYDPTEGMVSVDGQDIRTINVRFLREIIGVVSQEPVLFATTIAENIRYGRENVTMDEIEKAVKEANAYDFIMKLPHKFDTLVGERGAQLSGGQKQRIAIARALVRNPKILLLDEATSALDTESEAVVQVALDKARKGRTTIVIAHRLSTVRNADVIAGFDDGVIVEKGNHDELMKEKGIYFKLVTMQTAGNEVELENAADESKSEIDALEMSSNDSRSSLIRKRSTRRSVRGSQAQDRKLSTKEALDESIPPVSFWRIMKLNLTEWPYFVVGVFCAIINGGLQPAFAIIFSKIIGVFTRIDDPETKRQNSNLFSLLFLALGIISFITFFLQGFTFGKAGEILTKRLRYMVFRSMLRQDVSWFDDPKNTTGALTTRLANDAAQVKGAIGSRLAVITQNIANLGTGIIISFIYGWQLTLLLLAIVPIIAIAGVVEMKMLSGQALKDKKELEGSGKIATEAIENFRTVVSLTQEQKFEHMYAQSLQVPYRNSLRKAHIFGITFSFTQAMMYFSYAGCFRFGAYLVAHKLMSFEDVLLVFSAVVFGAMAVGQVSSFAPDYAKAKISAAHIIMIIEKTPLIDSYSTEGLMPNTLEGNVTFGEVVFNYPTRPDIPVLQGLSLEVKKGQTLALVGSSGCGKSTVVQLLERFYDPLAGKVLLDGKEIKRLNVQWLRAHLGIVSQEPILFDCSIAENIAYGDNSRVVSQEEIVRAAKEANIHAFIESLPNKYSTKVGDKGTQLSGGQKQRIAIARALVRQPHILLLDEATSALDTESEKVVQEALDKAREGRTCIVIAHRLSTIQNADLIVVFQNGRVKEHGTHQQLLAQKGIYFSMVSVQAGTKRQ

`CC(C)[C@H](NC(=O)[C@H](CO)NC(=O)[C@@H](N)Cc1ccc(O)cc1)C(=O)O` (H-Tyr-Ser-Val-OH): the negative-log IC50 (pIC50) in data set [1] is 6.15.
For the compound `CC1(C)O[C@H]2CC(=O)OC[C@]23[C@H]2CC[C@@]4(C)[C@H](c5ccoc5)OC(=O)[C@H]5O[C@]54[C@]2(C)C(=O)C[C@@H]13` [Limonin], the negative-log IC50 (pIC50) in data set [2] was 4.72.
For the compound `CCOc1cc(O)cc2c1C[C@@H](OC(=O)c1cc(OCC)c(OCC)c(OCC)c1)[C@@H](c1cc(O)c(OCC)c(OCC)c1)O2`, the pIC50 was 6.21 in data set [3] and 6.04 in data set [4].
